The text below walks through data of patent US20240327417A1, “HETEROCYCLIC COMPOUNDS” (BeiGene Switzerland GmbH, priority 2021, published 2024).

For test [1], the target named is T1, Full length DGKζ (in-house protein M1-V929) (Homo sapiens, UniProt Q13574).
T1 construct: His (N); TEV cleavage site (N); made in house; host or cells: Sf9 insect cells (baculovirus, Bac-to-Bac)
Description: Biochemical DGK IC50 assay (ADP-Glo, lipid micelle substrate), DGKζ. Particulars: 0.5 nM enzyme, 140 μM ATP, 80 μM DAG, 1 hour preincubation, 1 hour reaction, room temperature, read-out: IC50s for DGKζ. Here is the method:
(§1) Enzymatic reactions of DGKζ, DGKα and DGKδ were performed using ADP-Glo assay with lipid micelle substrate. […] Full length DGKα (D21-10BG, SignalChem) and full length DGKδ (D23-10G, SignalChem) were purchased. Lipid micelle was prepared by dissolving DAG (Sigma, 317505-10MG) and PS (Sigma, P7769-100MG) with chloroform which was firtherly removed by rotary evaporation. The obtained residue was resuspended in buffer containing 25 mM HEPES pH 7.0, 0.5 mM EDTA and 160 mM Octyl β-D glucopyranoside by vigorous mixing and ultrasonic (IID, Scientz).
(§2) The inhibition activities testing for the compound disclosed herein were carried out at room temperature in assay buffer containing 50 mM HEPES, 10 mM MgCl2, 0.01% BSA, 0.1 mM Na3VO4, 0.005% Tween-20 and 0.01 mM CaCl2. Compounds in DMSO were dispensed into wells of a black 384 well plate (Corning 4514) using D300e digital dispenser (Tecan). The ranges of compounds final concentration were 1.55˜10000 nM or 23.3˜150000 nM. 3 μL 2× enzyme solution was added to wells. […] After 1 hour reaction, 5 μL ADP-Glo reagent (Promga V9101) was added and incubated for 40 minutes. 10 μL Kinase Detection reagent was added and incubated for 30 minutes. Luminescence was measured on a microplate reader (PHERAstar FSX, BMG labtech). The IC50s are calculated based on inhibition of enzyme activity in the presence of increasing concentrations of compounds.
Human His-TEV-DGK-zeta-pFastBac1 and human baculovirus samples was generated using the Bac-to-Bac baculovirus expression system (Invitrogen) according to the manufacturer's protocol. The DNA used for expression of DGK-zeta, have SEQ ID Nos: 1. Baculovirus amplification was achieved using infected SF9 cells at 1:2000 virus/cells ratios, and grown for 96 hours at 27° C. post-transfected.
The expression scaled up for each protein was carried out in the […] from CORNING. 4 L of 3×10^6 cells/mL Sf9 cells (Expression System, Invitrogen) grown in SF900™ II SFM insect medium (Expression System) was infected with virus stock at 1:200 virus/cells ratio, and grown for 48 hours at 27° C. post-transfection. The infected cell culture was harvested by centrifugation at 6000 rpm for 15 min 4° C. in a SORVALL LYNX6000 centrifuge. The cell pellets were stored at −80° C.
Full length human DGKζ produced as described above, was purified from Sf9 baculovirus-infected insect cell paste. The cells were lysed using sonication method, and the lysates were clarified by centrifugation.

Test [2] deals with T2, Full length DGKα (D21-10BG, SignalChem) (Homo sapiens, UniProt P23743).
T2 construct: Full length DGKα (D21-10BG, SignalChem); purchased SignalChem D21-10BG
Description: Biochemical DGK IC50 assay (ADP-Glo, lipid micelle substrate), DGKα. The conditions noted are these: 7.5 nM enzyme, 140 μM ATP, 80 μM DAG, 1 hour preincubation, 1 hour reaction, room temperature, read-out: IC50s for DGKα. Here is the method: as §1, §2
For orientation: ADP-Glo turns the ADP formed in a reaction into a luminescent signal.

T1 sequence (Q13574 1-929 isoform Q13574-4): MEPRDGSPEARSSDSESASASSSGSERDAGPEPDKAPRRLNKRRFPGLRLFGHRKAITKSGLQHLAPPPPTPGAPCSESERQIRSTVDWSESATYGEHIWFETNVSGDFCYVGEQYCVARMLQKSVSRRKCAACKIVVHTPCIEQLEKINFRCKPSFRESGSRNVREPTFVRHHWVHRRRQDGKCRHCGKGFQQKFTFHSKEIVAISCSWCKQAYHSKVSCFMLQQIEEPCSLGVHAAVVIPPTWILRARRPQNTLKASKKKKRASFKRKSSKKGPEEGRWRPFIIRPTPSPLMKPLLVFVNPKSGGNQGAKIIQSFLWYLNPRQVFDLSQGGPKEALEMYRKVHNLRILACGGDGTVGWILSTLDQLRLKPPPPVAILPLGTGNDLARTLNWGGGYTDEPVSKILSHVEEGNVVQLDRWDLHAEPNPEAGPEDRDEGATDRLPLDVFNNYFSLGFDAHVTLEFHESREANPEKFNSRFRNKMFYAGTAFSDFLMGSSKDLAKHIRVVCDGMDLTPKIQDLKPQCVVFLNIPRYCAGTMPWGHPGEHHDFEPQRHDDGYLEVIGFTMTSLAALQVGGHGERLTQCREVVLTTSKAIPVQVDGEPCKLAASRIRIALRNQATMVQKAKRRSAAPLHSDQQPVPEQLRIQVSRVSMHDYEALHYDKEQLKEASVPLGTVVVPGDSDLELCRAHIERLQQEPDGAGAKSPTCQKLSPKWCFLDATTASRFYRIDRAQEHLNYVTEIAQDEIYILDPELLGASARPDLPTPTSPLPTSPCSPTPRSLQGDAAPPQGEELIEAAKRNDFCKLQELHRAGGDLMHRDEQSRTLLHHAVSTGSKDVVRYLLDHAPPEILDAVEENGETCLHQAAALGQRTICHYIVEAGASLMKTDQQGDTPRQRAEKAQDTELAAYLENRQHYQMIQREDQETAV
T2 sequence (P23743 whole entry): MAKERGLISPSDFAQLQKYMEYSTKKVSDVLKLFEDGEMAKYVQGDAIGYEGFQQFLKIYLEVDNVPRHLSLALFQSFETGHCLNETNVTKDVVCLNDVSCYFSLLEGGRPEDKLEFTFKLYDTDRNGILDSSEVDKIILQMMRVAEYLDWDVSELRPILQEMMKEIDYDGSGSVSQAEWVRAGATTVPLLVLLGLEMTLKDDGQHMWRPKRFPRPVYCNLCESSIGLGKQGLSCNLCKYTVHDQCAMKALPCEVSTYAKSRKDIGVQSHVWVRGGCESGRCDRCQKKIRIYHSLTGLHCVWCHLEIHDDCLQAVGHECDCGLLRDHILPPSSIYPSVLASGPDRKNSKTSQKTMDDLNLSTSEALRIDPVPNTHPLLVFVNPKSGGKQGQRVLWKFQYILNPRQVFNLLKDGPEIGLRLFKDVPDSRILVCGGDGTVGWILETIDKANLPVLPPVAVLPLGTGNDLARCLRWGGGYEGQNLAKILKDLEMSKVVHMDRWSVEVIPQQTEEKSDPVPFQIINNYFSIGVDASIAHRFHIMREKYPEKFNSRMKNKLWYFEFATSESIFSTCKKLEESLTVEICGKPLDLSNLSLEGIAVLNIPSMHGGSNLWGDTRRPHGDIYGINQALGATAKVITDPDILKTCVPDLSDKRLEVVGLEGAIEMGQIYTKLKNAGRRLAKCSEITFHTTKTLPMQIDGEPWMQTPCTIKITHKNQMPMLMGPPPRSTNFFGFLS

Regarding `CC(c1ccc2c(c1)OC(C)(C)CO2)N1C[C@H](C)N(c2c(C#N)c(=O)n(C)n3cc(CC#N)nc23)C[C@H]1C` (single isomer, unassigned) [Compound A27a], the figures for the IC50 in test [1] and in test [2] were 0.003 µM and 2.25 µM, respectively.
For `CC(c1ccc2c(c1)OC(C)(C)CO2)N1C[C@H](C)N(c2c(C#N)c(=O)n(C)n3cc(CC#N)nc23)C[C@H]1C` (single isomer, unassigned) [Compound A27b], the IC50 in test [1] came to 0.579 µM; in test [2] it was 0.486 µM.
In the case of `CC[C@H]1CN(C(C)c2ccc(C3CC3)nc2)[C@H](CC)CN1c1cc(=O)n(C)n2cc(CC#N)nc12` (single isomer, unassigned) [Compound A37a], the values for the IC50 in test [1] and in test [2] were 0.02 µM and 0.044 µM, respectively.
As for `CC[C@H]1CN(C(C)c2ccc(C3CC3)nc2)[C@H](CC)CN1c1cc(=O)n(C)n2cc(CC#N)nc12` (single isomer, unassigned) [Compound A37b], the IC50 in test [1] is 0.538 µM; in test [2], 0.26 µM.
In the case of `CC[C@H]1CN(C(C)c2ccc(C(C)C)nc2)[C@H](CC)CN1c1cc(=O)n(C)n2cc(CC#N)nc12` (single isomer, unassigned) [Compound A38a], the IC50 stood at 0.021 µM in test [1] and 0.043 µM in test [2].
The matching figures for `CC[C@H]1CN(C(C)c2ccc(C(C)C)nc2)[C@H](CC)CN1c1cc(=O)n(C)n2cc(CC#N)nc12` (single isomer, unassigned) [Compound A38b]: 0.475 µM and 0.423 µM.
Regarding `CC[C@H]1CN(C(C)c2ccc(C3CC3)nc2F)[C@H](CC)CN1c1cc(=O)n(C)n2cc(CC#N)nc12` (single isomer, unassigned) [Compound A42a], the IC50 in test [1] worked out at 0.057 µM; in test [2], 0.339 µM.
As for `CC[C@H]1CN(C(C)c2ccc(C3CC3)nc2F)[C@H](CC)CN1c1cc(=O)n(C)n2cc(CC#N)nc12` (single isomer, unassigned) [Compound A42b], the IC50 in test [1] came to 1.25 µM; in test [2], 1.06 µM.
Take `CC[C@@H]1CN(c2cc(=O)n(C)n3cc(CC#N)nc23)[C@@H](C)CN1C(C)c1ccc(C2CC2)nc1` (single isomer, unassigned) [Compound A43a]: the IC50 in test [1] was found to be 0.202 µM; in test [2], 0.285 µM.
Taken in the same sequence, the figures for `CC[C@@H]1CN(c2cc(=O)n(C)n3cc(CC#N)nc23)[C@@H](C)CN1C(C)c1ccc(C2CC2)nc1` (single isomer, unassigned) [Compound A43b] were over 10 µM and 1.49 µM.
With `CC[C@H]1CN(C(C)c2ccc(OC(C)C)nc2)[C@H](CC)CN1c1cc(=O)n(C)n2cc(CC#N)nc12` (single isomer, unassigned) [Compound A45a], the values for the IC50 in test [1] and in test [2] were 0.008 µM and 0.941 µM, respectively.
Turning to `CC[C@H]1CN(C(C)c2ccc(OC(C)C)nc2)[C@H](CC)CN1c1cc(=O)n(C)n2cc(CC#N)nc12` (single isomer, unassigned) [Compound A45b], the results for the IC50 in test [1] and in test [2] were 1.06 µM and 0.835 µM, respectively.
Consider `CC[C@H]1CN(C(C)c2ccc(C(C)(C)F)nc2)[C@H](CC)CN1c1cc(=O)n(C)n2cc(CC#N)nc12` (single isomer, unassigned) [Compound A46a], for which the IC50 came to 0.0064 µM in test [1] and 0.122 µM in test [2].
In the case of `CC[C@H]1CN(C(C)c2ccc(C(C)(C)F)nc2)[C@H](CC)CN1c1cc(=O)n(C)n2cc(CC#N)nc12` (single isomer, unassigned) [Compound A46b], the IC50 in test [1] came out at 0.877 µM; in test [2], 0.671 µM.
With `CC[C@H]1CN(C(C)c2ccc3ncsc3c2)[C@H](CC)CN1c1cc(=O)n(C)n2cc(CC#N)nc12` (single isomer, unassigned) [Compound A53a], the IC50 in test [1] amounted to 0.004 µM; in test [2] it was 0.011 µM.
In the case of `CC[C@H]1CN(C(C)c2ccc3ncsc3c2)[C@H](CC)CN1c1cc(=O)n(C)n2cc(CC#N)nc12` (single isomer, unassigned) [Compound A53b], the IC50 in test [1] worked out at 0.215 µM; in test [2], 0.235 µM.
In the case of `CC[C@H]1CN(C(C)c2ccc3nc(C)sc3c2)[C@H](CC)CN1c1cc(=O)n(C)n2cc(CC#N)nc12` (single isomer, unassigned) [Compound A56a], the IC50 was found to be 0.011 µM in test [1] and 0.087 µM in test [2].
Take `CC[C@H]1CN(C(C)c2ccc3nc(C)sc3c2)[C@H](CC)CN1c1cc(=O)n(C)n2cc(CC#N)nc12` (single isomer, unassigned) [Compound A56b]: the values for the IC50 in test [1] and in test [2] were 0.638 µM and 0.659 µM, respectively.
In the case of `CC[C@H]1CN(C(C)c2ccc3ncsc3n2)[C@H](CC)CN1c1cc(=O)n(C)n2cc(CC#N)nc12` (single isomer, unassigned) [Compound A57a], the results for the IC50 in test [1] and in test [2] were 0.0068 µM and 0.0079 µM, respectively.
On to `CC[C@H]1CN(C(C)c2ccc3ncsc3n2)[C@H](CC)CN1c1cc(=O)n(C)n2cc(CC#N)nc12` (single isomer, unassigned) [Compound A57b], for which the IC50 is 0.357 µM in test [1] and 0.172 µM in test [2].
Take `CC[C@H]1CN(C(C)c2ccc3nc(C)sc3n2)[C@H](CC)CN1c1cc(=O)n(C)n2cc(CC#N)nc12` (single isomer, unassigned) [Compound A58a]: the IC50 in test [1] was 2.16 µM; in test [2], 1.22 µM.
For the compound `CC[C@H]1CN(C(C)c2ccc3nc(C)sc3n2)[C@H](CC)CN1c1cc(=O)n(C)n2cc(CC#N)nc12` (single isomer, unassigned) [Compound A58b], the results for the IC50 in test [1] and in test [2] were 0.0073 µM and 0.0133 µM, respectively.
Take `CC[C@H]1CN(C(C)c2cc3scnc3cc2F)[C@H](CC)CN1c1cc(=O)n(C)n2cc(CC#N)nc12` (single isomer, unassigned) [Compound A59a]: the IC50 in test [1] turned out to be 0.026 µM; in test [2] it was 0.054 µM.
Taken in the same sequence, the figures for `CC[C@H]1CN(C(C)c2cc3scnc3cc2F)[C@H](CC)CN1c1cc(=O)n(C)n2cc(CC#N)nc12` (single isomer, unassigned) [Compound A59b] were 2.61 µM and 1.58 µM.
For the compound `CC[C@@H]1CN(c2cc(=O)n(C)n3cc(CC#N)nc23)[C@@H](C)CN1C(C)c1cc2sc(C)nc2cc1F` (single isomer, unassigned) [Compound A60a], the IC50 in test [1] came out at 0.189 µM; in test [2], 0.826 µM.
On to `CC[C@@H]1CN(c2cc(=O)n(C)n3cc(CC#N)nc23)[C@@H](C)CN1C(C)c1cc2sc(C)nc2cc1F` (single isomer, unassigned) [Compound A60b], for which the IC50 in test [1] stood at 2.93 µM; in test [2] it was 4.41 µM.
Regarding `CC[C@H]1CN(C(C)c2cc3sc(C)nc3cc2F)[C@H](CC)CN1c1cc(=O)n(C)n2cc(CC#N)nc12` (single isomer, unassigned) [Compound A61a], the results for the IC50 in test [1] and in test [2] were 0.126 µM and 0.4 µM, respectively.
The matching figures for `CC[C@H]1CN(C(C)c2cc3sc(C)nc3cc2F)[C@H](CC)CN1c1cc(=O)n(C)n2cc(CC#N)nc12` (single isomer, unassigned) [Compound A61b]: 2 µM and 5.52 µM.
In the case of `CC[C@H]1CN(C(C)c2ccc3ncsc3c2F)[C@H](CC)CN1c1cc(=O)n(C)n2cc(CC#N)nc12` (single isomer, unassigned) [Compound A62a], the IC50 in test [1] is 0.0085 µM; in test [2], 0.105 µM.
The matching figures for `CC[C@H]1CN(C(C)c2ccc3ncsc3c2F)[C@H](CC)CN1c1cc(=O)n(C)n2cc(CC#N)nc12` (single isomer, unassigned) [Compound A62b]: 1.21 µM and 2.39 µM.
The matching figures for `CC[C@@H]1CN(c2cc(=O)n(C)n3cc(CC#N)nc23)[C@@H](C)CN1C(C)c1ccc2nc(C)sc2c1F` (single isomer, unassigned) [Compound A63a]: 0.006 µM and 0.683 µM.
Taken in the same sequence, the figures for `CC[C@@H]1CN(c2cc(=O)n(C)n3cc(CC#N)nc23)[C@@H](C)CN1C(C)c1ccc2nc(C)sc2c1F` (single isomer, unassigned) [Compound A63b] were 1.79 µM and 5.78 µM.
